Experimental data as given in paper PMC4791960 (European journal of medicinal chemistry, 2011).

Legend:
[1] = biological target: α7 nAChR (Rattus norvegicus, UniProt Q05941); test: [3H]-methyllycaconitine competition binding on rat hippocampal membranes; conditions: for interaction with α7 nAChR: in words; for Ki: read-out: α7 Ki, [3H]-methyllycaconitine, rat hippocampal membranes
[2] = biological target: rat α7 nAChR (Rattus norvegicus, UniProt Q05941); test: Patch-clamp electrophysiology in rat α7 nAChR; assay type: cell-based
[3] = biological target: α4β2 nAChR (Rattus norvegicus, UniProt P09483+P12390); test: [3H]-epibatidine competition binding on rat cortical membranes; conditions: tested at 5 μM, ± standard error
[4] = biological target: α1βγδ muscle-type nicotinic receptors (Homo sapiens, UniProt P02708+P07510+Q07001); test: [3H]-epibatidine competition binding on TE-671 cellular membranes; conditions: tested at 5 μM, ± standard error
[5] = biological target: α3β4 ganglion-type nicotinic receptors (Homo sapiens, UniProt P30926+P32297); test: [3H]-epibatidine competition binding on SH-SY5Y cellular membranes
[6] = test system: AChBP from Ac; test: Dissociation constants with AChBP from Aplysia californica; assay type: binding; conditions: compound 2 vs compound 3 (OH to OCH3)
[7] = test system: AChBP from Bt; test: Dissociation constants with AChBP from Bulinus truncatus; assay type: binding; conditions: compound 2 vs compound 3 (OH to OCH3)

Question: How did the “interaction with α7 nAChR” value [1] turn out when c1ccc(C2=NC3(CN2)CN2CCC3CC2)cc1 (stereo not shown) [Compound 3c] was run?
Answer: The value was “do not demonstrate any interaction”.

Question: Which “interaction with α7 nAChR” value [1] does the source give for C1=NCC2(CN3CCC2CC3)NC=C1c1ccccc1 (stereo not shown) [Compound 2h, 6-phenylspiro[1,3-dihydro-1,4-diazepine-2,3′-quinuclidine]] here?
Answer: Its value is “do not demonstrate any interaction”.

Question: With Oc1c(C2=NC3(CN2)CN2CCC3CC2)oc2ccccc12 (stereo not shown) [Compound 3a, 2-(3-Hydroxybenzofuran-2-yl)spiro[1,5-dihydroimidazole-4,3′-quinuclidine]] as the compound, how does the EC50 [2] read?
Answer: The EC50 was 600 ± 500 nM.

Question: And the Emax [2]?
Answer: Its Emax is 53 ± 4.4%.

Question: How did the “α4β2 percent inhibition of control radioligand binding” value (“α4β2 percent inhibition” below) [3] turn out when “5-(2-Methoxyphenyl)spiro[1,3-dihydro-1,4-diazepine-2,3′-quinuclidine]-7-ol [Compound 2b]” was run?
Answer: The value was 7 ± 1%.

Question: What about the Ki [1] of the same compound?
Answer: The Ki was 110 nM.

Question: What does the source list for “5-(4-Methoxyphenyl)spiro[1,3-dihydro-1,4-diazepine-2,3′-quinuclidine]-7-ol [Compound 2d]”?
Answer: α1βγδ percent inhibition of control radioligand binding [4]: 38 ± 5%; α3β4 percent inhibition of control radioligand binding ([5]; tested at 5 μM, [3H]-epibatidine, SH-SY5Y cellular membranes, ± standard error): 63 ± 0.4%; α4β2 percent inhibition of control radioligand binding [3]: 42 ± 14%; Ki [1]: 42 nM

Question: COc1cc(O)ccc1/C=C1\CCCN=C1c1cccnc1 [Compound 3, 2-Methoxy-4-OH benzylidene anabaseine, reference compound] was tested. Which inhibition at 5 µM ([5]; read-out: α3β4 percent inhibition of control radioligand binding) did it give?
Answer: The inhibition at 5 µM was 75 ± 1%.

Question: With O=C1NCC2(CN3CCC2CC3)NC(=O)C1c1ccccc1 (stereo not shown) [Compound 2i, 6-Phenylspiro[1,4-diazepane-2,3′-quinuclidine]-5,7-dione] as the compound, how does the “interaction with α7 nAChR” value [1] read?
Answer: The value was “do not demonstrate any interaction”.

Question: How did the “α4β2 percent inhibition” value [3] turn out when “5-(2-Furyl)spiro[1,3-dihydro-1,4-diazepine-2,3′-quinuclidine]-7-ol [Compound 2g]” was run?
Answer: Its value is 14 ± 3%.

Question: What about the Ki [1] of the same compound?
Answer: The Ki was 150 nM.

Question: Which “α4β2 percent inhibition” value [3] does the source give for “5-Phenylspiro[1,3-dihydro-1,4-diazepine-2,3′-quinuclidine]-7-ol [Compound 2a]” here?
Answer: Its value is 15 ± 1%.

Question: And the Ki [1]?
Answer: Its Ki is 140 nM.

Question: For COc1ccc(/C=C2\CCCN=C2c2cccnc2)c(OC)c1 [Compound 2, 3-(2,4-dimethoxybenzilidene)-anabaseine], which “loss in affinity vs compound 3, Ac” value [6] is on record?
Answer: Its value is 110 fold.

Question: What about the “decrease in Kd value (affinity) vs compound 3, Bt” value [7] of the same compound?
Answer: Its value is 2.5 fold.

Question: Which “interaction with α7 nAChR” value [1] does the source give for c1ccc2oc(C3=NC4(CN3)CN3CCC4CC3)cc2c1 (stereo not shown) [Compound 3e, 2-Spiro[1,5-dihydroimidazole-4,3′-quinuclidine]-2-ylbenzo [b]furan] here?
Answer: Its value is “do not demonstrate any interaction”.
